Source: patent US9162992B2, “Compounds and compositions for treatment of breathing control disorders or diseases” (GALLEON PHARMACEUTICALS, INC., priority 2010, dated 2015)
Counter-ions that a name gives are not always drawn.

How the values were obtained:
[1] = tested on: spontaneously breathing rats; test: Minute ventilation (MV) and cardiovascular parameters in naive rats; format: in vivo, rat; design: unit not given here
Description: All surgical procedures were performed under anesthesia induced by 2% isoflurane in compressed medical grade air. With rats in supine position, the right femoral vein was catheterized using polyethylene tubing (PE-50). This catheter was used for fluid and drug administration. Simultaneously, the right femoral artery was also catheterized for monitoring blood pressure and heart rate. In order to measure the respiratory parameters in spontaneously breathing rats, trachea was intubated using 13 gauge tracheal tube (2.5 mm ID, Instech Solomon, Pa.).
After establishing a stable base-line at 1.5% isoflurane, compounds (typically at a dose of 1 mpk) were administered IV, and ventilatory parameters were generated from spontaneously breathing rats, along with cardiovascular output (mean arterial pressure (MAP) and heart rate). Maximum peak minute ventilatory (MV) responses (MPR), along with changes in minute ventilation versus baseline (AMV) were obtained as shown in the tables below.

[2] = Solubility in solvents and IV solutions; format: physicochemical; conditions: water, thermodynamic from solid, Solubility
Description: The solubility of (XXXXVI) and XXXV was evaluated in various solvents and IV solutions. Due to limits on the API supply at the time the study was conducted, most of the solvent systems were evaluated to a level of only 100 mg/mL even if the solution was not saturated at this level. Only in water was an attempt made to reach saturation solubility, regardless of how high that solubility might be. Solubility of the salt/free base in each solvent was evaluated in duplicate.
For solubility in water, drug was added with intermittent shaking to ensure that excess undissolved drug is present indicating saturation […]. The filtrates were diluted appropriately and analyzed for (XXXV) concentration by HPLC.

[3] = 1 mpk IV, 20% HPβCD, pH not given
[4] = Table 8, 1 mpk, 20% HPβCD, pH 4

Compound	MV DMV [1, 4]	MV MPR [1, 4]	MV MPR ([1]; 1 mpk IV, 20% HPβCD, pH 4-6)	MV ΔMV ([1]; 1 mpk IV, 20% HPβCD, pH 4-6)	also measured
CCCNc1nc(NCCC)nc(N(C)OC(C)C)n1 [LXIV, N-(4,6-Bis-n-propylamino-[1,3,5]triazin-2-yl)-O-isopropyl-N-methyl-hydroxylamine]	–	–	–	–	MV MPR [1, 3]: 271; MV ΔMV [1, 3]: 209
CCCNc1nc(NCCC)nc(N(OCc2ccccc2)C(C)C)n1 [LXXII, 6-((Benzyloxy)(isopropyl)amino)-N^2,N^4-dipropyl-1,3,5-triazine-2,4-diamine]	82	176	–	–	–
CCCNc1nc(NCCC)nc(N(CC)OC(C)C)n1 [LXXVI, N-(4,6-Bis-n-propylamino-[1,3,5]triazin-2-yl)-N-ethyl-O-isopropyl-hydroxylamine]	191	308	–	–	MV MPR ([1]; 1 mpk IV, 20% HPβCD, pH 4): 308; MV ΔMV ([1]; 1 mpk IV, 20% HPβCD, pH 4): 191
CCCNc1nc(NCCC)nc(N(C)OCC(C)C)n1 [LXXXII, N-(4,6-Bis-n-propylamino-[1,3,5]triazin-2-yl)-O-isobutyl-N-methyl-hydroxylamine]	133	248	–	–	MV MPR ([1]; 1 mpk IV, 20% HPβCD, pH 4): 248; MV ΔMV ([1]; 1 mpk IV, 20% HPβCD, pH 4): 133
CCCNc1nc(NCCC)nc(N(C)OCc2cccs2)n1 [LXXXIV, 6-(Methyl(thiophen-2-ylmethoxy)amino)-N^2,N^4-di-n-propyl-1,3,5-triazine-2,4-diamine]	110	213	–	–	MV MPR ([1]; 1 mpk IV, 20% HPβCD, pH 4): 213; MV ΔMV ([1]; 1 mpk IV, 20% HPβCD, pH 4): 110
CCCNc1nc(NCC)nc(NOC)n1 [N^2-ethyl-6-(methoxyamino)-N^4-n-propyl-1,3,5-triazine-2,4-diamine]	–	–	208	117	–
CCCNc1nc(NC(C)C)c2ccn(C(C)C)c2n1 [N^4,7-diisopropyl-N^2-n-propyl-7H-pyrrolo[2,3-d]pyrimidine-2,4-diamine]	–	–	–	–	MV MPR ([1]; 1 mpk IV, 20% HPβCD, pH 6): 250; MV ΔMV ([1]; 1 mpk IV, 20% HPβCD, pH 6): 155
CCCNc1nc(NC(C)C)c2ccn(C)c2n1 [N^4-isopropyl-7-methyl-N^2-n-propyl-7H-pyrrolo[2,3-d]pyrimidine-2,4-diamine]	–	–	–	–	MV MPR ([1]; 1 mpk IV, 20% HPβCD, pH 5): 402; MV ΔMV ([1]; 1 mpk IV, 20% HPβCD, pH 5): 320
CCCNc1nc(NC(C)C)c2cc[nH]c2n1 [N^4-isopropyl-N^2-n-propyl-7H-pyrrolo[2,3-d]pyrimidine-2,4-diamine]	–	–	–	–	MV MPR ([1]; 1 mpk IV, 20% HPβCD, pH 4): 259; MV ΔMV ([1]; 1 mpk IV, 20% HPβCD, pH 4): 172
CCCNc1nc(NCCC)nc(N(C)OCC2CC2)n1 [XCI, N-(4,6-Bis-n-propylamino-[1,3,5]triazin-2-yl)-O-cyclopropylmethyl-N-methyl-hydroxylamine]	152	261	–	–	MV MPR ([1]; 1 mpk IV, 20% HPβCD, pH 4): 261; MV ΔMV ([1]; 1 mpk IV, 20% HPβCD, pH 4): 152
CCCNc1nc(NCCC)nc(N(C)NC)n1 [XLIX, N-(4,6-Bis-n-propylamino-[1,3,5]triazin-2-yl)-N,N′-dimethyl-hydrazine]	–	–	–	–	MV MPR ([1]; 1 mpk IV, 20% HPβCD, pH 5): 338; MV ΔMV ([1]; 1 mpk IV, 20% HPβCD, pH 5): 216
CCCNc1nc(N)nc(N(C)OC)n1 [XLVII, 6-(Methoxy(methyl)amino)-N2-propyl-1,3,5-triazine-2,4-diamine]	–	–	–	–	MV MPR ([1]; 1 mpk IV, 20% HPβCD, pH 5): 150.73; MV ΔMV ([1]; 1 mpk IV, 20% HPβCD, pH 5): 61.48
CCCNc1nc(NCCC)nc(N(C)O)n1 [XLVIII, N-(4,6-Bis-n-propylamino-[1,3,5]triazin-2-yl)-N-methyl-hydroxylamine]	–	–	–	–	MV MPR ([1]; 1 mpk IV, 15/65/20, pH 5): 114; MV ΔMV ([1]; 1 mpk IV, 15/65/20, pH 5): 30.13
CNc1nc(NC)nc(N(C)OC)n1 [XX, N-(4,6-Bis-methylamino-[1,3,5]triazin-2-yl)-N,O-dimethyl-hydroxylamine hydrochloride]	–	–	213	60	–
CCNc1nc(NCC)nc(N(C)OC)n1 [XXII, N-(4,6-Bis-ethylamino-[1,3,5]triazin-2-yl)-N,O-dimethyl-hydroxylamine hydrochloride]	–	–	252	130	–
CON(C)c1nc(NCC(C)C)nc(NCC(C)C)n1 [XXIX, N-(Bis-4,6-(2-methylpropylamino)) [1,3,5]triazin-2-yl)-N,O-dimethyl-hydroxylamine hydrochloride]	–	–	253	161	–
CCCNc1nc(NCC2CC2)nc(N(C)OC)n1 [XXV, N-(4-Cyclopropylmethyl)-N-(6-n-propylamino) [1,3,5]triazin-2-yl)-N,O-dimethyl-hydroxylamine hydrochloride]	–	–	257	126	solubility [2]: ~210 µg/mL
CON(C)c1nc(NC2CC2)nc(NC2CC2)n1 [XXXIII, 4,6-Bis-N-cyclopropylamino-[1,3,5]triazin-2-yl)-N,O-dimethyl-hydroxylamine hydrochloride]	–	–	147	53	–
CON(C)c1nc(NCC(C)(C)C)nc(NCC(C)(C)C)n1.Cl [XXXI]	43	140	–	–	–
